Assay results taken from patent publication US9920063B2, “Melampomagnolide B derivatives” (Board of Trustees of the University of Arkansas, priority 2013, dated 2018).
Like-named read-outs stand apart in the source and are kept apart here.

Key:
[1] = test system: AML 052308 cells
Protocol: (§1) For each compound, in vitro cell culture studies were performed in which a range of concentrations (0.25-20 μM) was tested for cytotoxicity against leukemia cell lines, primary leukemia specimens and normal bone marrow controls.

[2] = test system: M9 ENL cells
Protocol: (§2) Carbamate and carbonate derivatives of MMB were also screened for activity against M9 ENL cells at concentrations of 5, 10 and 20 μM (FIG. 10). […] Additionally, succinic amide derivatives of MMB were screened for activity against M9 ENL cells at concentrations of 5, 10 and 20 μM (FIG. 11).
(§3) Ester and amide derivatives of melampomagnolide B were screened for anti-leukemic activity against M9ENL AML cell lines (FIG. 12; FIG. 14; FIG. 15; FIG. 16). For each compound, in vitro cell culture studies were performed in which a range of concentrations (0.25-20 μM) was tested for cytotoxicity against leukemia cell lines, primary leukemia specimens and normal bone marrow controls.

[3] = test system: AML 052308 cells; experiment: Antileukemic activity against AML 052308 cells in culture; settings: for Fold more potent than parthenolide: AML 052308 cells
Protocol: as §1

[4] = test system: AML 100510 primary isolate; experiment: Antileukemic activity against AML 100510 primary isolate
Protocol: as §1

[5] = test system: AML 123009 primary isolate; experiment: Antileukemic activity against AML 123009 primary isolate
Protocol: as §1

[6] = test system: cord blood cells; experiment: Toxicity against cord blood cells; assay type: cell-based
[7] = test system: M9 ENL cells; experiment: cells; settings: 24 h
Protocol: as §2, §3

Compound	Fold more cytotoxic than MMB [1]	Fold more potent than parthenolide [3]	EC50 ([3]; AML 052308 cells in culture) [nM]	EC50 [7] [nM]	EC50 [3] [nM]	further results
C=C1C(=O)O[C@H]2[C@H]1CC/C(COC(=O)/C=C/c1c[nH]c3ccccc13)=C\CC[C@@]1(C)O[C@@H]21 [BS-2-04]	about 22 fold	10 fold	720			Antileukemic activity compared to MMB ([2]; M9 ENL cell line): good anti-leukemic activity compared to parent compound MMB; Antileukemic activity compared to MMB [4]: good anti-leukemic activity compared to parent compound MMB; Antileukemic activity compared to MMB [5]: good anti-leukemic activity compared to parent compound MMB; EC50 [6]: 750 nM
C=C1C(=O)O[C@H]2[C@H]1CC/C(COC(=O)c1ccc3cc[nH]c3c1)=C\CC[C@@]1(C)O[C@@H]21 [BS-2-05]	around 7 fold	around 3 fold		2500	2500	
C=C1C(=O)O[C@H]2[C@H]1CC/C(COC(=O)Cc1c[nH]c3ccccc13)=C\CC[C@@]1(C)O[C@@H]21 [BS-2-32]	around 7 fold	around 3 fold	4000			EC50 ([2]; M9ENL AML cell lines, 24 hours of drug exposure): 4000 nM
C=C1C(=O)O[C@H]2[C@H]1CC/C(C(=O)Nc1n[nH]c(SC)n1)=C\CC[C@@]1(C)O[C@@H]21 [JVM 3-53, (1aR,7aS,10aS,10bS,E)-1a-methyl-8-methylene-N-(5-(methylthio)-1H-1,2,4-triazol-3-yl)-9-oxo-1a,2,3,6,7,7a,8,9,10a,10b-decahydrooxireno[2′,3′:9,10]cyclodeca[1,2-b]furan-5-carboxamide]				16		Fold greater cytotoxicity than PTL ([2]; M9 cell lines): ~30 fold
C=C1C(=O)OC2C1CC/C(CO)=C\CCC1(C)OC21 (stereo not drawn) [MMB, Melampomagnolide B]					16000	
